Where two headings read alike, the source gives them in different places.
Tests used:
[1] = Acute oral toxicity (warm blooded toxicity) in rats; details: rat, in vivo, po
Sitophilus granarius = assay: Durability (disinfection) test on wheat, grain weevil; type: in vivo; details: 168 h, read-out: % animals dead after one week exposure
From the text: (§1) Wheat was shaken up with 5% dusting agent and then mixed again repeatedly with untreated wheat at half the poison concentration. In this way, a dilution series with concentrations of 50 - 25 - 12 - 6 - 3 - 1.5 ppm was obtained.
(§2) Since the test is repeated once per month, the desired information is obtained concerning the residual effect. In the test, the important pests in storage protection were chosen, viz, the grain weevil (Sitophilus granarius) - lesser grain borer (Rhizopertha dominica) and the larvae of the Khapra beetle (Trogoderma granarium), which are very resistant to insecticides. 20 test insects were tested per concentration and the results are expressed in the following table.

insects = assay: Insecticidal action and effective life (general statement); type: in vivo
[2] = Vapour pressure and diffusion (general statement)
adult houseflies = assay: Gas action against adult houseflies; type: in vivo, Musca domestica (housefly); details: 10 mg active substance, 2 liter glass cylinder
Experimental: Using a pipette 10 mg of active substance were placed on a watch glass which was then covered with a wire mesh and placed in a 2 liter glass cylinder. Immediately thereafter 30 houseflies were introduced into the container which was then sealed.
A comparative test between compound 1 and PHOSDRIN (Registered Trade Mark) carried out according to this method gave the following mortality periods in minutes for 10%, 50% and 100% kill of the test animals.

Sit. Granarius = assay: Diffusion action in wheat (gas phase between wheat grains); type: in vivo; details: Sitophilus granarius, 168 h, 50 ppm treated wheat layer, read-out: Mortality in % after 7 days exposure time
From the text: A plexiglass box was divided by means of wire grids into ten vertical layers each 1 cm thick. Each compartment was filled with wheat grains. The first compartment contained wheat grains which had been treated with 50 ppm active agent (5% dusting agent). The remainder of the compartment contained untreated wheat. All the compartments were then supplied with grain weevils. The mortality was noted after 7 days exposure time and the results are expressed in the following table. Diffusion of active substance in gas phase between the wheat grains

Trogoderma granarium (L) = assay: Durability (disinfection) test on wheat, larvae of the Khapra beetle; type: in vivo; details: 168 h, read-out: % animals dead after one week exposure
From the text: as §1, §2

Rhizopertha dominica = assay: Durability (disinfection) test on wheat, lesser grain borer; type: in vivo; details: Rhyzopertha dominica, 168 h, read-out: % animals dead after one week exposure
From the text: as §1, §2

[3] = compared to compounds of French Pat. No. 1530955, PHOSDRIN or DDVP

With `COC(=O)C(C)=COP(=S)(OC)OC` [Compound I, 3-hydroxymethacrylic acid methyl ester dimethylthionophosphate] the LD50 [1] was 500 mg/kg, the mortality at 1.5 ppm (Sitophilus granarius; wheat fresh) was 100% and the mortality at 1.5 ppm (Sitophilus granarius; wheat stored 1 month) was 90%. For the same molecule, the mortality at 1.5 ppm (Sitophilus granarius; wheat stored 2 months) was 100%, the mortality at 1.5 ppm (Sitophilus granarius; wheat stored 3 months) was 70% and the mortality at 3 ppm (Sitophilus granarius; wheat fresh) was 100%. The mortality at 3 ppm (Sitophilus granarius; wheat stored 1 month) was 100%, the mortality at 3 ppm (Sitophilus granarius; wheat stored 2 months) was 100% and the mortality at 3 ppm (Sitophilus granarius; wheat stored 3 months) was 95%. The mortality at 6 ppm (Sitophilus granarius; wheat fresh) was 100%, the mortality at 6 ppm (Sitophilus granarius; wheat stored 1 month) was 100% and the mortality at 6 ppm (Sitophilus granarius; wheat stored 2 months) was 100%. For the same molecule, the mortality at 6 ppm (Sitophilus granarius; wheat stored 3 months) was 100%, the mortality at 12 ppm (Sitophilus granarius; wheat fresh) was 100% and the mortality at 12 ppm (Sitophilus granarius; wheat stored 1 month) was 100%. For the same molecule, the mortality at 12 ppm (Sitophilus granarius; wheat stored 2 months) was 100%, the mortality at 12 ppm (Sitophilus granarius; wheat stored 3 months) was 100% and the mortality at 25 ppm (Sitophilus granarius; wheat fresh) was 100%. It also gave a mortality at 25 ppm (Sitophilus granarius; wheat stored 1 month) of 100%, a mortality at 25 ppm (Sitophilus granarius; wheat stored 2 months) of 100% and a mortality at 25 ppm (Sitophilus granarius; wheat stored 3 months) of 100%. For the same molecule, the mortality at 50 ppm (Sitophilus granarius; wheat fresh) was 100%, the mortality at 50 ppm (Sitophilus granarius; wheat stored 1 month) was 100% and the mortality at 50 ppm (Sitophilus granarius; wheat stored 2 months) was 100%. For the same molecule, the mortality at 50 ppm (Sitophilus granarius; wheat stored 3 months) was 100%, the insecticidal action (insects; [3]) was “stronger insecticidal action” and the effective life (insects; in vivo) was “more than 4 months”. The “diffusion into the gaps between stored foodstuffs” value [2] was “diffuses easily”, the vapour pressure [2, 3] was “increased vapour pressure” and the “Mortality time for 10% of the houseflies” value (adult houseflies; 10% kill) was 5 min. The “Mortality time for 50% of the houseflies” value (adult houseflies; 50% kill) was 6 min, the “Mortality time for 100% of the houseflies” value (adult houseflies; 100% kill) was 25 min and the mortality at 50 ppm (Sit. Granarius; distance 1 cm) was 100%. For the same molecule, the mortality at 50 ppm (Sit. Granarius; distance 2 cm) was 100%, the mortality at 50 ppm (Sit. Granarius; distance 3 cm) was 100% and the mortality at 50 ppm (Sit. Granarius; distance 4 cm) was 100%. For the same molecule, the mortality at 50 ppm (Sit. Granarius; distance 5 cm) was 90%, the mortality at 50 ppm (Sit. Granarius; distance 6 cm) was 15% and the mortality at 1.5 ppm (Trogoderma granarium (L); wheat fresh) was 90%. For the same molecule, the mortality at 1.5 ppm (Trogoderma granarium (L); wheat stored 1 month) was 0%, the mortality at 1.5 ppm (Trogoderma granarium (L); wheat stored 2 months) was 0% and the mortality at 1.5 ppm (Trogoderma granarium (L); wheat stored 3 months) was 0%. For the same molecule, the mortality at 3 ppm (Trogoderma granarium (L); wheat fresh) was 95%, the mortality at 3 ppm (Trogoderma granarium (L); wheat stored 1 month) was 10% and the mortality at 3 ppm (Trogoderma granarium (L); wheat stored 2 months) was 0%. For the same molecule, the mortality at 3 ppm (Trogoderma granarium (L); wheat stored 3 months) was 0%, the mortality at 6 ppm (Trogoderma granarium (L); wheat fresh) was 100% and the mortality at 6 ppm (Trogoderma granarium (L); wheat stored 1 month) was 85%. For the same molecule, the mortality at 6 ppm (Trogoderma granarium (L); wheat stored 2 months) was 30%, the mortality at 6 ppm (Trogoderma granarium (L); wheat stored 3 months) was 10% and the mortality at 12 ppm (Trogoderma granarium (L); wheat fresh) was 100%. It also gave a mortality at 12 ppm (Trogoderma granarium (L); wheat stored 1 month) of 95%, a mortality at 12 ppm (Trogoderma granarium (L); wheat stored 2 months) of 85% and a mortality at 12 ppm (Trogoderma granarium (L); wheat stored 3 months) of 55%. The mortality at 25 ppm (Trogoderma granarium (L); wheat fresh) was 100%, the mortality at 25 ppm (Trogoderma granarium (L); wheat stored 1 month) was 100% and the mortality at 25 ppm (Trogoderma granarium (L); wheat stored 2 months) was 100%. The mortality at 25 ppm (Trogoderma granarium (L); wheat stored 3 months) was 100%, the mortality at 50 ppm (Trogoderma granarium (L); wheat fresh) was 100% and the mortality at 50 ppm (Trogoderma granarium (L); wheat stored 1 month) was 100%. It also gave a mortality at 50 ppm (Trogoderma granarium (L); wheat stored 2 months) of 100%, a mortality at 50 ppm (Trogoderma granarium (L); wheat stored 3 months) of 100% and a mortality at 1.5 ppm (Rhizopertha dominica; wheat fresh) of 20%. The mortality at 1.5 ppm (Rhizopertha dominica; wheat stored 1 month) was 0%, the mortality at 1.5 ppm (Rhizopertha dominica; wheat stored 2 months) was 15% and the mortality at 1.5 ppm (Rhizopertha dominica; wheat stored 3 months) was 0%. It also gave a mortality at 3 ppm (Rhizopertha dominica; wheat fresh) of 90%, a mortality at 3 ppm (Rhizopertha dominica; wheat stored 1 month) of 5% and a mortality at 3 ppm (Rhizopertha dominica; wheat stored 2 months) of 10%. It also gave a mortality at 3 ppm (Rhizopertha dominica; wheat stored 3 months) of 15%, a mortality at 6 ppm (Rhizopertha dominica; wheat fresh) of 100% and a mortality at 6 ppm (Rhizopertha dominica; wheat stored 1 month) of 60%. It also gave a mortality at 6 ppm (Rhizopertha dominica; wheat stored 2 months) of 40%, a mortality at 6 ppm (Rhizopertha dominica; wheat stored 3 months) of 15% and a mortality at 12 ppm (Rhizopertha dominica; wheat fresh) of 100%. The mortality at 12 ppm (Rhizopertha dominica; wheat stored 1 month) was 85%, the mortality at 12 ppm (Rhizopertha dominica; wheat stored 2 months) was 70% and the mortality at 12 ppm (Rhizopertha dominica; wheat stored 3 months) was 35%. It also gave a mortality at 25 ppm (Rhizopertha dominica; wheat fresh) of 100%, a mortality at 25 ppm (Rhizopertha dominica; wheat stored 1 month) of 100% and a mortality at 25 ppm (Rhizopertha dominica; wheat stored 2 months) of 80%. For the same molecule, the mortality at 25 ppm (Rhizopertha dominica; wheat stored 3 months) was 75%, the mortality at 50 ppm (Rhizopertha dominica; wheat fresh) was 100% and the mortality at 50 ppm (Rhizopertha dominica; wheat stored 1 month) was 100%. It also gave a mortality at 50 ppm (Rhizopertha dominica; wheat stored 2 months) of 100% and a mortality at 50 ppm (Rhizopertha dominica; wheat stored 3 months) of 100%.
